Columns and labels:
Assay type in all cases: cell-based
[1] = tested on: full length AR (AR-FL) mRNA; assay: Androgen receptor RNA level expression (qRT-PCR) in 22Rv1: AR-FL; conditions: 22Rv1, 1 μM, 48 h; for mrna remaining at 1 µM: Homo sapiens, normalized to untreated control (vehicle/DMSO)
Description: (§1) The prostate cancer cell line 22Rv1 was treated for 48 h with 1 μM Example compound 1, 1/1, 1/2, 2/1, 2/2, 2/3, 2/4, 2/5, 2/6, 2/7, 2/8, 2/9 and 2/10 and the reference compounds SR2211 and XY018 (Nat. Med. 2016; 22:488). RNA was extracted using the RNA isolation kit XS (Macherey-Nagel) and following the manufacture's manual. RNA quantity was measured with the Nanodrop before reverse transcription using Superscript II (Invitrogen #100004925). For the quantitative real-time PCR with SYBR-Green (Qiagen #204074), the following primers were used: AR forward-ACATCAAGGAACTCGATCGTATCATTGC and reverse-TTGGGCACTTGCACAGAGAT, AR-V7: forward-CCATCTTGTCGTCTTCGGAAATGTTATGAAGC and reverse-TTTGAATGAGGCAAGTCAGCCTTTCTT. The qRT-PCR proceeded as follows: denaturation for 5 min 95° C.; 40 cycles of “20 sec at 95° C. and 15 sec at 60° C.” and at the end of the last cycle, the melting temperature of the products was determined by gradually increasing it from 60° C. to 99° C. CT values from all samples were normalized to two different reference (housekeeping) genes using the mean CT value of the GAPDH and YWHAZ (reference genes). Next the values are normalized to the untreated control (vehicle/DMSO).

[2] = tested on: AR-V7 mRNA; assay: Androgen receptor RNA level expression (qRT-PCR) in 22Rv1: AR-V7; conditions: 22Rv1, 1 μM, 48 h; for mrna remaining at 1 µM: Homo sapiens, normalized to untreated control (vehicle/DMSO)
Description: as §1

[3] = target: T1, RORγt (Homo sapiens, UniProt P51449); assay: RORγt inhibition, Indigo Biosciences Human RAR-related Orphan Receptor, Gamma Reporter Assay System; conditions: luciferase reporter cells, 22-24 h incubation; read-out: IC50 range, RORγt assay
T1 sequence (P51449 269-518 limits assumed): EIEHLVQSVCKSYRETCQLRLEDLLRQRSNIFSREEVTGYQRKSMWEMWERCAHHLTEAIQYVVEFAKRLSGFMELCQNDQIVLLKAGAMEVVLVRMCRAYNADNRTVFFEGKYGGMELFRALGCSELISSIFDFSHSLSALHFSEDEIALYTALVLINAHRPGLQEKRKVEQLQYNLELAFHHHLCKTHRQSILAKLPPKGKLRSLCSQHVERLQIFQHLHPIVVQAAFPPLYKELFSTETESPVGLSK
Description: The in vitro inhibition of RORγt was measured using Indigo Biosciences Human RAR-related Orphan Receptor, Gamma Reporter Assay System (Product #11304001-32) as described in the technical manual. In brief, 200 μL of Reporter Cells is dispensed into wells of the assay plate and preincubated for 4-6 h. Following the pre-incubation period, culture media are discarded and 200 μL/well of the prepared 1×-concentration treatment media are added. Following 22-24 h incubation, treatment media are discarded and Luciferase Detection Reagent is added. The intensity of light emission (in units of ‘Relative Light Units’; RLU) from each assay well is quantified using a plate-reading luminometer. Average values of RLU were determined for each treatment concentration. Non-linear regression analyses were performed and IC50 values determined using GraphPad Prism software. Provided inverse-agonists ursolic acid served as positive control.

[4] = tested on: IL-17A; assay: Cytokine assay, human PBMC stimulated with PHA: IL-17A; conditions: PHA-activated, 48 hours, read-out: IL-17A inhibition (IC50 range)
Description: (§2) Peripheral blood mononuclear cells (PBMC) from healthy human donors were purified using Accuspin™ System-Histopaque-1077 (Sigma) according to the protocol recommended by the manufacturer. Purified PBMC were then washed twice with phosphate-buffered saline (PBS) and resuspended in RPMI1640 culture medium supplemented with 10% dialyzed heat inactivated fetal calf serum, 1.5 mM L-glutamine, 100 U penicillin/mL and […] streptomycin/mL (all from PAN Biotech, Aidenbach, Germany). For stimulation, PBMC were seeded at 1×10^5 cells/well, activated with 2 gg/mL phytohaemagglutinin (PHA, Sigma) and incubated with the test compounds for 48 hours. IL-17A, IL-17F and INFγ were then determined in the culture supernatant using a Luminex BioPlex system, following the manufacturer's instructions (BioRad, Munich, Germany). To determine the IC50, compounds were titrated semilogarithmically.
(§3) Cytokines were determined in the aforementioned culture supernatant using the following methods: IL-17A was measured using the human homodimer IL-17A ELISA Ready Set Go Kit from cBioscience (Frankfurt, Germany); IL-17F using the human IL-17F ELI-Pair from Holzel Diagnostica GmbH (K51n, Germany); and IFNγ using the OptEIA human IFN-g ELISA from BD Bioscience (Heidelberg, Germany), all following the manufacturer's instructions.

[5] = tested on: IL-17F; assay: Cytokine assay, human PBMC stimulated with PHA: IL-17F; conditions: PHA-activated, 48 hours, read-out: IL-17F inhibition (IC50 range)
Description: as §2, §3

[6] = tested on: IFNγ; assay: Cytokine assay, human PBMC stimulated with PHA: IFNγ; conditions: PHA-activated, 48 hours, read-out: IFNγ inhibition (IC50 range)
Description: as §2, §3

[7] = tested on: KLK2 mRNA; assay: Expression of AR target genes (qRT-PCR) in 22Rv1: KLK2; conditions: 22Rv1, 1 μM; for mrna remaining at 1 µM: Homo sapiens, 48h, relative to vehicle control (DMSO); for KLK2 mRNA level expression: 48 h
Description: (§4) The prostate cancer cell line 22Rv1 was treated for 48h with 1 μM Example compound 1, 1/1, 2/1, 2/2, 2/3, 2/4, 2/5, 2/6, 2/7, 2/8, 2/9 and 2/10 and reference compounds SR2211 and XY018. RNA was extracted using the RNA isolation kit XS (Macherey-Nagel) and following the manufacture's manual. RNA quantity was measured with the Nanodrop before reverse transcription using Superscript II (Invitrogen #100004925). For the quantitative real-time PCR with SYBR-Green (Qiagen #204074), the following primers were used:
(§5) qRT-PCR was performed using SYBR-Green (Qiagen #204074) reagents in a PCR cycler (Gorbett Research) Rotor Gene RG3000 with the following program: denaturation for 5′ at 95° C.; 40 cycles of 20″ at 95° C. and 15″ at 60° C.″ and at the end of the last cycle, the melting temperature of the products was determined by gradually increasing from 60° C. to 99° C. CT values from all samples were normalized to reference (housekeeping) genes using the mean CT value of the GAPDH and YWHAZ (reference genes). Next the values are put relative to the untreated control (vehicle/DMSO).

[8] = tested on: NKX3.1 mRNA; assay: Expression of AR target genes (qRT-PCR) in 22Rv1: NKX3.1; conditions: Homo sapiens; 22Rv1, 1 μM, 48h; relative to vehicle control (DMSO)
Description: as §4, §5

[9] = tested on: FKBP5 mRNA; assay: Expression of AR target genes (qRT-PCR) in 22Rv1: FKBP5; conditions: Homo sapiens; 22Rv1, 1 μM, 48h; relative to vehicle control (DMSO)
Description: as §4, §5

[10] = tested on: prostate cancer cell line 22RV1; assay: Oncolead sulforhodamin B growth inhibition, 22RV1; conditions: Homo sapiens, sulforhodamin B assay, 72 and 120 h treatment, read-out: GI50 range 22RV1
Description: (§6) Cell growth was assessed by measuring protein content using sulforhodamin B. Growth inhibition was calculated by (TCMD−T0)/TNCT72h−T0)*100% with TCMD is the tumor growth at 72 h with the respective compound concentration. To is the protein content of the cell line before treatment and TNCT72h is the tumor growth of the DMSO control.

[11] = tested on: prostate cancer cell line PC3; assay: Oncolead sulforhodamin B growth inhibition, PC3; conditions: sulforhodamin B assay; 72 and 120 h treatment; read-out: GI50 range PC3
Description: as §6

[12] = tested on: prostate cancer cell line DU145; assay: Oncolead sulforhodamin B growth inhibition, DU145; conditions: Homo sapiens, DU-145; sulforhodamin B assay; 72 and 120 h treatment; read-out: GI50 range DU145
Description: as §6

[13] = tested on: prostate cancer cell line VCaP; assay: Oncolead sulforhodamin B growth inhibition, VCaP; conditions: Homo sapiens, VCaP; sulforhodamin B assay; 72 and 120 h treatment; read-out: GI50 range VCAP
Description: as §6

[14] = tested on: prostate cancer cell line LNCAP; assay: Oncolead sulforhodamin B growth inhibition, LNCAP; conditions: Homo sapiens, sulforhodamin B assay, 72 and 120 h treatment, read-out: GI50 range LNCAP
Description: as §6

Row | full length AR (AR-FL) mRNA expression [1] | AR-V7 mRNA expression [2] | IC50 [3] [nM] | IC50 [4] [nM] | IC50 [5] [nM] | IC50 [6] [nM] | GI50 [10] [nM] | GI50 [11] [nM] | GI50 [12] [nM] | GI50 [13] [nM] | GI50 [14] [nM] | Compound | mrna remaining at 1 µM [1] [%] | mrna remaining at 1 µM [2] [%] | mrna remaining at 1 µM [7] [%] | mrna remaining at 1 µM [8] [%] | mrna remaining at 1 µM [9] [%] | KLK2 mRNA level expression [7]
1 | strong reduction | strong reduction | 10 to 100 |  |  |  |  |  |  |  |  | CC(C)(O)CCn1ncc(-c2onc(-c3c(F)cccc3Cl)c2-c2ncccn2)c1C(F)F [Example 1/2, 4-(4-(3-(2-Chloro-6-fluorophenyl)-4-(pyrimidin-2-yl)isoxazol-5-yl)-5-(difluoromethyl)-1H-pyrazol-1-yl)-2-methylbutan-2-ol] | 52.4 | 50.9 |  |  |  | 
2 | strong reduction | strong reduction |  | < 25 | < 25 | < 25 |  |  |  |  |  | C[C@H](O)Cn1ncc(-c2onc(-c3c(F)cccc3Cl)c2-c2nccs2)c1C(F)(F)F [Example 2/1] | 42.4 | 22.8 | 56.9 | 39.9 | 34.4 | 
3 |  |  |  |  |  |  | < 25 | < 25 | < 25 | < 25 | < 25 | CC(=O)O[C@H]1C(=O)[C@@]2(C)[C@H]([C@H](OC(=O)c3ccccc3)[C@]3(O)C[C@H](OC(=O)[C@H](O)[C@@H](NC(=O)c4ccccc4)c4ccccc4)C(C)=C1C3(C)C)[C@]1(OC(C)=O)CO[C@@H]1C[C@@H]2O [paclitaxel, reference compound] |  |  |  |  |  | 
4 |  |  |  |  |  |  | ≥ 5000 | ≥ 5000 | ≥ 5000 | 100 to 5000 | 100 to 5000 | CNC(=O)c1ccc(N2C(=S)N(c3ccc(C#N)c(C(F)(F)F)c3)C(=O)C2(C)C)cc1F [enzalutamide, reference compound] |  |  |  |  |  | 
5 |  |  | < 10 |  |  |  |  |  |  |  |  | Fc1cccc(Cl)c1-c1noc(-c2cnn(-c3cccc(Cl)c3)c2C(F)(F)F)c1COC1CC1 [Example 2, 3-(2-Chloro-6-fluorophenyl)-5-(1-(3-chlorophenyl)-5-(trifluoromethyl)-1H-pyrazol-4-yl)-4-(cyclopropoxymethyl)isoxazole] |  |  |  |  |  | 

The next lines start with the compound.

Row | Compound | full length AR (AR-FL) mRNA expression [1] | AR-V7 mRNA expression [2] | IC50 [3] [nM] | IC50 [4] [nM] | IC50 [5] [nM] | IC50 [6] [nM] | GI50 [10] [nM] | GI50 [11] [nM] | GI50 [12] [nM] | GI50 [13] [nM] | GI50 [14] [nM] | mrna remaining at 1 µM [1] [%] | mrna remaining at 1 µM [2] [%] | mrna remaining at 1 µM [7] [%] | mrna remaining at 1 µM [8] [%] | mrna remaining at 1 µM [9] [%] | KLK2 mRNA level expression [7]
6 | C[C@H](O)Cn1ncc(-c2onc(-c3cccc(C(=O)N4CCCC4)c3Cl)c2-c2ccncn2)c1C(F)(F)F [2/3] | strong reduction | strong reduction |  | 25 to 100 | 25 to 100 | 25 to 100 |  |  |  |  |  | 43.4 | 25.5 | 41.1 | 35.7 | 24.5 | strong inhibition
7 | COc1cccc(-c2noc(-c3cnn([C@H]4C[C@@](C)(O)C4)c3C(F)(F)F)c2COC2CC2)c1Cl [2/9] | strong reduction | strong reduction |  | < 25 | < 25 | < 25 |  |  |  |  |  | 49.9 | 29.3 | 41.2 | 48.2 | 31.5 | 
8 | C[C@]1(O)C[C@@H](n2ncc(-c3onc(-c4c(F)cccc4Cl)c3-c3ccncn3)c2C(F)(F)F)C1 [2/4] | strong reduction | strong reduction |  | 25 to 100 | < 25 | < 25 |  |  |  |  |  | 43.5 | 25.4 | 42.6 | 35.9 | 29.8 | strong inhibition
9 | CC(C)(O)CCn1ncc(-c2onc(-c3cccc(OCCN4CCOCC4)c3Cl)c2-c2ncccn2)c1C(F)(F)F [2/7] | strong reduction | strong reduction | 100 to 1000 | 25 to 100 | < 25 | < 25 |  |  |  |  |  | 42.5 | 22.8 | 43.6 | 30.5 | 27.5 | strong inhibition
10 | CCOC(=O)c1c(-c2cccc(OC)c2Cl)noc1-c1cnn(CCC(C)(C)O)c1C(F)(F)F [2/10] | strong reduction | strong reduction |  | < 25 | < 25 | < 25 |  |  |  |  |  | 53.1 | 22.7 | 37.9 | 32.2 | 27.7 | strong inhibition
